We go through 3 compounds from patent US6727038B1, “Photodefineable compositions” (Dow Global Technologies Inc., priority 1995, dated 2004).

Structures are written as SMILES.

Holding throughout (type): physicochemical
Data set [1] is described as follows: Solubility of bis azides in mesitylene and in DVS resin/mesitylene mixture. The settings on record: for Solubility In Mesitylene: in mesitylene at 25° C.; for Solubility In Mixture: mixture of 45 weight percent DVS resin in mesitylene at 10° C., weight percent based on total weight of mixture. The method, then:
The solubility of various bis azides are determined in mesitylene at 25° C. and in a mixture of 45 weight percent DVS resin in mesitylene at 10° C. The results are shown in Table I. BAC-M is 2,6-bis(4-azidobenzylidene)-4-methylcyclohexanone and differs from the bis azide of the invention by having a methyl substituent on the cyclohexanone ring instead of ethyl. BAC-P is 2,6-bis(4-azidobenzylidene)-4-n-propyl cyclohexanone and differs from the bis azide of the invention by having an n-propyl substituent on the cyclohexanone ring instead of ethyl. The weight percent in the mixture is calculated based on the total weight of mixture.

Data set [2] can be described thus: Storage at -15° C., precipitate formation. The protocol: A formulation containing 3.6 weight percent BAC-E in a mixture of 45 weight percent DVS resin in mesitylene is stored for more than five months at −15° C. […] A formulation containing 4.05 weight percent BAC-E in a mixture of 45 weight percent DVS resin in mesitylene is stored at −15° C. A precipitate forms in three days. A formulation containing 2.0 weight percent BAC-M in a mixture of 45 weight percent DVS resin in mesitylene is stored at −15° C. A precipitate forms in less than ten days.

A short description of data set [3]: Speed of dissolution in DVS resin/mesitylene. The settings on record: shaken at room temperature. The protocol: BAC-E, up to four weight percent, is added to a mixture of 45 weight percent DVS resin in mesitylene and shaken at room temperature. The BAC-E dissolves in thirty minutes. BAC-M, at 2.0 weight percent is added to a mixture of 45 weight percent DVS resin in mesitylene and shaken at room temperature. The BAC-M requires more than eight hours of shaking to dissolve.

On to `CCC1C/C(=C\c2ccc(N=[N+]=[N-])cc2)C(=O)/C(=C/c2ccc(N=[N+]=[N-])cc2)C1` (stereo not shown) [BAC-E, 2,6-bis(4-azidobenzylidene)-4-ethylcyclohexanone], for which, in data set [1], the “Solubility In Mesitylene” value is reported as 14 g/100 mL and the “Solubility In Mixture” value is listed as 10.4 Wt %. For the same compound, the “precipitate formation on storage” value in data set [2] (3.6 weight percent BAC-E in 45 weight percent DVS resin in mesitylene, stored more than five months at -15° C.) is “No precipitate forms”. In addition, in data set [3] (up to four weight percent in 45 weight percent DVS resin in mesitylene), the time to dissolve entry was “thirty”.
Regarding `CC1CC(=Cc2ccc(N=[N+]=[N-])cc2)C(=O)C(=Cc2ccc(N=[N+]=[N-])cc2)C1` (stereo not shown) [BAC-M, 2,6-bis(4-azidobenzylidene)-4-methylcyclohexanone], in data set [1], the “Solubility In Mesitylene” value came out at 1.7 g/100 mL and the “Solubility In Mixture” value was 1.0 Wt %. Also, in data set [2] (2.0 weight percent BAC-M in 45 weight percent DVS resin in mesitylene, stored at -15° C.), the “time until a precipitate forms” value is “less than ten”. In data set [3] (2.0 weight percent in 45 weight percent DVS resin in mesitylene), the “time of shaking to dissolve” value is on record as “more than eight”.
Regarding `CCCC1CC(=Cc2ccc(N=[N+]=[N-])cc2)C(=O)C(=Cc2ccc(N=[N+]=[N-])cc2)C1` (stereo not shown) [BAC-P, 2,6-bis(4-azidobenzylidene)-4-n-propyl cyclohexanone], in data set [1], the “Solubility In Mesitylene” value is listed as 3.5 g/100 mL and the “Solubility In Mixture” value is reported as 1.7 Wt %.
